Among the data in ChEMBL document CHEMBL1158251, “Determination of oenothein B as the active 5-alpha-reductase-inhibiting principle of the folk medicine Epilobium parviflorum” (J Nat Prod, 1996) are IC50 values, retold here.

By IC50 is commonly meant the concentration that inhibits the measured activity by half. A higher IC50 goes with lower potency.

SMILES strings stand for the structures.

This assay can be described thus: Inhibition of 5alpha reductase from human prostatic hyperplasia.

`CC(C)(C)NC(=O)[C@H]1CC[C@H]2[C@@H]3CC[C@H]4NC(=O)C=C[C@]4(C)[C@H]3CC[C@]12C` [FINASTERIDE] yielded an IC50 of 0.01 µM. In the case of `O=C(O[C@H]1[C@@H]2OC(=O)c3cc(O)c(O)c(O)c3-c3c4cc(c(O)c3O)Oc3c(cc(O)c(O)c3O)C(=O)O[C@H]3C(O)O[C@@H]5COC(=O)c6cc(O)c(O)c(O)c6-c6c(cc(c(O)c6O)Oc6c(cc(O)c(O)c6O)C(=O)O[C@H]1C(O)O[C@@H]2COC4=O)C(=O)O[C@H]5[C@@H]3OC(=O)c1cc(O)c(O)c(O)c1)c1cc(O)c(O)c(O)c1` (some centres not stated) [OENOTHEIN B] it was 22 µM.
